Measurements reported in ChEMBL document CHEMBL5042544, “Discovery of a Potent and Selective ATAD2 Bromodomain Inhibitor with Antiproliferative Activity in Breast Cancer Models” (J Med Chem, 2022).
pIC50, pKd: −log10 of the molar value.

What was measured:
[1] = target: Bromodomain-containing protein 2 (Homo sapiens, UniProt P25440); experiment: Binding affinity to human BRD2 bromodomain 1 assessed as dissociation constant by BROMOscan method
[2] = target: Bromodomain and WD repeat-containing protein 1 (Homo sapiens, UniProt Q9NSI6); experiment: Binding affinity to human WDR9 bromodomain 2 assessed as residual activity at 300 nM by BROMOscan method relative to control
[3] = target: CREB-binding protein (Homo sapiens) (UniProt Q92793); experiment: Binding affinity to human CREBBP bromodomain assessed as residual activity at 300 nM by BROMOscan method relative to control
Sequence of CREB-binding protein (Homo sapiens) (Q92793 2-2442 limits assumed): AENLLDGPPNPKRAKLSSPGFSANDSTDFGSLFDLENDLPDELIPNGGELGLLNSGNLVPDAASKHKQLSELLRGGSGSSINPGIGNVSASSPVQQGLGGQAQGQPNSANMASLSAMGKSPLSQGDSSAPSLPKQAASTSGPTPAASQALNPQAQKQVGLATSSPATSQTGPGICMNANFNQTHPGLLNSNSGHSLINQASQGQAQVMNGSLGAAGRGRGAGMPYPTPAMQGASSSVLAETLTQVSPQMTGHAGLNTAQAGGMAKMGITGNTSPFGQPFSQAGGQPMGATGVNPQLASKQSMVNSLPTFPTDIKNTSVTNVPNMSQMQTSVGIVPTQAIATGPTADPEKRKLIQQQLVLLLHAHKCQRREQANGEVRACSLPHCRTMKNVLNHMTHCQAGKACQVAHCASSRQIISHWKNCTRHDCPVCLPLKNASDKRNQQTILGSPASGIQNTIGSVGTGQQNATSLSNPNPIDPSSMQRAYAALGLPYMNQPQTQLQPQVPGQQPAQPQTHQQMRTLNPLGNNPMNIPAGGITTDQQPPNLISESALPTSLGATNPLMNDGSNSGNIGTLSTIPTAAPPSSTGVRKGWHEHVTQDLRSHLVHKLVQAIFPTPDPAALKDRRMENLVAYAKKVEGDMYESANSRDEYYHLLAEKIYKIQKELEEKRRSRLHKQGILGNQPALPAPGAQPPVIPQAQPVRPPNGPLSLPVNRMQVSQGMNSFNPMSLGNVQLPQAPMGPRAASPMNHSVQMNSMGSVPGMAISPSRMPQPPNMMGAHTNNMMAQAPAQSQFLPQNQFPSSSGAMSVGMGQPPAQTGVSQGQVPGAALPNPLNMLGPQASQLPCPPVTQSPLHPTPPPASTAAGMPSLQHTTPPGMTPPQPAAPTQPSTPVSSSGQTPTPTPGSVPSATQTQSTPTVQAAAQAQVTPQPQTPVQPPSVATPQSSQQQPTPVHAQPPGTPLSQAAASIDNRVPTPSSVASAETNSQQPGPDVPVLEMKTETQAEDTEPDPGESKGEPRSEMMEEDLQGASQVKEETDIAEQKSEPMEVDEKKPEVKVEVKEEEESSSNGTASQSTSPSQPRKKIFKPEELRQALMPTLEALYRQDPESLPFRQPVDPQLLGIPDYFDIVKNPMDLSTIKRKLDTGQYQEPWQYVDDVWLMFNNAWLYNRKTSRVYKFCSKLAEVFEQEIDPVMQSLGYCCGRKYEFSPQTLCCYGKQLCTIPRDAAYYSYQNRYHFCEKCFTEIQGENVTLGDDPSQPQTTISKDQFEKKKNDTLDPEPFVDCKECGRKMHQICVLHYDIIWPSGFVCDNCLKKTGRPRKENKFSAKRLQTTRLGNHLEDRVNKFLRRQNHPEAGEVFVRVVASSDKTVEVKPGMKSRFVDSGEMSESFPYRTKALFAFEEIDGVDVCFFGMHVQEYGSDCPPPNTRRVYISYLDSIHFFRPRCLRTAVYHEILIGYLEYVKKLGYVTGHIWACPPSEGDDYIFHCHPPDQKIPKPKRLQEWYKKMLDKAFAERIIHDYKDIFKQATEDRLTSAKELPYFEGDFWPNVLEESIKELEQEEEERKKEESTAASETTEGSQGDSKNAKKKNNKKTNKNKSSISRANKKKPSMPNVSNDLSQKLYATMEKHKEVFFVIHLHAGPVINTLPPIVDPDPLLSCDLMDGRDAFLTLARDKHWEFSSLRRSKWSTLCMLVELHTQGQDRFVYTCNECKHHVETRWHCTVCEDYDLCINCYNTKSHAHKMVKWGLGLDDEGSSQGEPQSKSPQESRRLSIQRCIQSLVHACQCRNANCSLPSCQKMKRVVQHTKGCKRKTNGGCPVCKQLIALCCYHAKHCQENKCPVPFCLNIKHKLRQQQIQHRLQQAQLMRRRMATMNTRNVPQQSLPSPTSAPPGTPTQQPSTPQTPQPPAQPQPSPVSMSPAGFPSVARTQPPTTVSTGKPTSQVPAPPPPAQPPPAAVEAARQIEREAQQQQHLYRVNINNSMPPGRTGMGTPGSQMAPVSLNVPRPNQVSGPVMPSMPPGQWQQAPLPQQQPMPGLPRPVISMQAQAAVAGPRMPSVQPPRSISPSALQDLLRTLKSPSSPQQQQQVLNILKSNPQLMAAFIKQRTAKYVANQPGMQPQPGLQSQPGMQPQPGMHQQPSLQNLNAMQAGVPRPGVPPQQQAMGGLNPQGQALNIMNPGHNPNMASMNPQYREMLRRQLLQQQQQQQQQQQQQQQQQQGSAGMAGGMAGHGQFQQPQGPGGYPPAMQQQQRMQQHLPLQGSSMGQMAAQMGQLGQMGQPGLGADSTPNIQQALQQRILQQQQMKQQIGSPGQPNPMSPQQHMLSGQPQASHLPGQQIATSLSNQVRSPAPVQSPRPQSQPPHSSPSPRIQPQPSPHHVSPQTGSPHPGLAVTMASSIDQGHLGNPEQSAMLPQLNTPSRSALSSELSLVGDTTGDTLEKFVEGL

[4] = target: T1, ATPase family AAA domain-containing protein 2 (Homo sapiens, UniProt Q6PL18); experiment: Displacement of Halo-tagged Histone H3.3 from Nanoluc-ATAD2 BD (962 to 1119 residues) (unknown origin) transfected in human HCT116 cells incubated for 18 hrs in presence of efflux inhibitor reversan by NanoBRET assay; type: cell-based, HCT-116
T1 sequence (Q6PL18 whole entry): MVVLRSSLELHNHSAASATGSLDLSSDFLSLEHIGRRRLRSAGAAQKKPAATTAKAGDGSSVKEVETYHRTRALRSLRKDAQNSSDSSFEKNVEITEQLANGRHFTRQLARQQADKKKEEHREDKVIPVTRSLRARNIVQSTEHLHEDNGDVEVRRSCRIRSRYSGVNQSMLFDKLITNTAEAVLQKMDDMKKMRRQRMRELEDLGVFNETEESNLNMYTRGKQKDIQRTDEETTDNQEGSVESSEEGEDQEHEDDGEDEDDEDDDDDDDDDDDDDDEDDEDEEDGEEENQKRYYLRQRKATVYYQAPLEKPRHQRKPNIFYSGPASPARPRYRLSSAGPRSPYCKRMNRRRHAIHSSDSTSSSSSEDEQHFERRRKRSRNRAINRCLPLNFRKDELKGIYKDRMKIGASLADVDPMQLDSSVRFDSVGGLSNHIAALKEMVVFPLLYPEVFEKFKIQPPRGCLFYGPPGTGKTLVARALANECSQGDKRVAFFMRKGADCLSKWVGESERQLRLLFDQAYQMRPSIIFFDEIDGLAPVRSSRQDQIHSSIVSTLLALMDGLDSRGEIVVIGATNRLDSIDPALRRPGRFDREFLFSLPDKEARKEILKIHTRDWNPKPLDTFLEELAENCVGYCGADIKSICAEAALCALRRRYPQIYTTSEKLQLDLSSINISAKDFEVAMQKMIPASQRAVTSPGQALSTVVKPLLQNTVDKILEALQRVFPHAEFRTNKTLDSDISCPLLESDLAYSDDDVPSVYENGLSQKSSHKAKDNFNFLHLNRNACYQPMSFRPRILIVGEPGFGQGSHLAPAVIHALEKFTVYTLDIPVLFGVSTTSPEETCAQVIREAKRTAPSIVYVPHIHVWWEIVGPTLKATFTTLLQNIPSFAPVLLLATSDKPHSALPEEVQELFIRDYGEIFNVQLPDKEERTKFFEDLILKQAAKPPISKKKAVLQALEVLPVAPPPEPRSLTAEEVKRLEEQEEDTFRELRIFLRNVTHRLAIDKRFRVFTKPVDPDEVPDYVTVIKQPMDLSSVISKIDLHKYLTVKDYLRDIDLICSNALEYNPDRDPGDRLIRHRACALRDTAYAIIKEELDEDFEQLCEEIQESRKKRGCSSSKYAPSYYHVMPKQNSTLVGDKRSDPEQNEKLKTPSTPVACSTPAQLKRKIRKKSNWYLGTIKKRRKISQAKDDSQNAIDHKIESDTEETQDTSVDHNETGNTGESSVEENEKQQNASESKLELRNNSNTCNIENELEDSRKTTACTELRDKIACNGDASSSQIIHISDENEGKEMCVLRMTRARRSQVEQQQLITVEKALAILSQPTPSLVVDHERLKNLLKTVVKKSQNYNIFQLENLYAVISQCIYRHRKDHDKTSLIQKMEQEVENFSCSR

[5] = target: Bromodomain-containing protein 3 (Homo sapiens, UniProt Q15059); experiment: Binding affinity to human BRD3 bromodomain 2 assessed as residual activity at 300 nM by BROMOscan method relative to control
Sequence of Bromodomain-containing protein 3 (Q15059 2-726 limits assumed): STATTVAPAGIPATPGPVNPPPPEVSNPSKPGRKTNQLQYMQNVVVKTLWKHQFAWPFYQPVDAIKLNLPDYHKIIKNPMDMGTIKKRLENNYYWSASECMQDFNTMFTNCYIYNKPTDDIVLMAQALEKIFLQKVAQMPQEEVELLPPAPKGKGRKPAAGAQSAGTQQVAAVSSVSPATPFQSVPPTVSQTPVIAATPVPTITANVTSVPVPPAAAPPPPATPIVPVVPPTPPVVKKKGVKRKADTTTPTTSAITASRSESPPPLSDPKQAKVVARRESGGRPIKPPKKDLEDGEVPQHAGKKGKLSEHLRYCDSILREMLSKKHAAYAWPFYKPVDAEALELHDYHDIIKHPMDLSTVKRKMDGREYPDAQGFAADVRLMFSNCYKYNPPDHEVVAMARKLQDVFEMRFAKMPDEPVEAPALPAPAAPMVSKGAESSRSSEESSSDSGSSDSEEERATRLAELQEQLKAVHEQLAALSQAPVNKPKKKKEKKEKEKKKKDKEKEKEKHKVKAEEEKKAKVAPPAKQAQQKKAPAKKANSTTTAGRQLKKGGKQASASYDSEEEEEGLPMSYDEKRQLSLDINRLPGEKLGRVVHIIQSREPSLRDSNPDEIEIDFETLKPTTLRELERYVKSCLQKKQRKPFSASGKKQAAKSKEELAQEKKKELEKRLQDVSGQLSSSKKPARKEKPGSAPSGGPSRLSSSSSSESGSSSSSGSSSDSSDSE

T47D = experiment: Antiproliferative activity against human T-47D cells expressing ATAD2 assessed as inhibition of colony formation at 0.01 to 10 uM measured after 14 to 21 days by AlamarBlue staining based colony formation assay; type: functional, cell-based; conditions: dose 0.01-10 µM, time 14-21 day
[6] = target: T1, ATPase family AAA domain-containing protein 2; experiment: Displacement of Halo-tagged Histone H3.3 from Nanoluc-ATAD2A BD (962 to 1119 residues) (unknown origin) transfected in human HCT116 cells incubated for 18 hrs by NanoBRET assay; type: cell-based, HCT-116
[7] = target: T1, ATPase family AAA domain-containing protein 2; experiment: Binding affinity to ATAD2 bromodomain (981 to 1108 residues) (unknown origin) expressed in Escherichia coli BL21 (DE3) by BROMOscan method

Sequence of Bromodomain-containing protein 2 (P25440 whole entry): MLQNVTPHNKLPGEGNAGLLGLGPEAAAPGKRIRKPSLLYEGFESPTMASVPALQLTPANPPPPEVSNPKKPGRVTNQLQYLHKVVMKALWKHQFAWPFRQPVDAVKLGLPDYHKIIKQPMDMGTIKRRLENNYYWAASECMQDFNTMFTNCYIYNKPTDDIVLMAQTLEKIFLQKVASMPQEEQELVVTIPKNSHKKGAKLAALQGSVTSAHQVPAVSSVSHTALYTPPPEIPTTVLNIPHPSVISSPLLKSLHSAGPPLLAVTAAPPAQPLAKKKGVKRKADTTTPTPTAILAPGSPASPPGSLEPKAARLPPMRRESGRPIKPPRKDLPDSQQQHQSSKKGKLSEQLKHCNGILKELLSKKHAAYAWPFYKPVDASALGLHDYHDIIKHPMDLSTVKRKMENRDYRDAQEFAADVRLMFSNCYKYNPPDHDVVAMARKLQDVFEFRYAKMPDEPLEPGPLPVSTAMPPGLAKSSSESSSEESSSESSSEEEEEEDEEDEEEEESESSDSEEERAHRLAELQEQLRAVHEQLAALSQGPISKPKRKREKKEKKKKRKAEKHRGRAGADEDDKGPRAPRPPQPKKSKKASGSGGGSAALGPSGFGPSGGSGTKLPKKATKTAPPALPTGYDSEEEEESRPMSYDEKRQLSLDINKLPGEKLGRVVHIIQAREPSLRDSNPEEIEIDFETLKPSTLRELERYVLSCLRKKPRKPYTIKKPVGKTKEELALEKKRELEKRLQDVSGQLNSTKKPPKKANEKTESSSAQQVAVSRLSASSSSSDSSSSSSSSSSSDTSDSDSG

pKd [1]: 6.90
Activity [2]: 53%
Activity [3]: 61%
pIC50 [4]: 7.10
Activity [5]: 56%
pIC50 [6]: 6.90
pKd [7]: 8.90
Structure (SMILES): Cc1nnc2c(NC3CCN(CC(C)(C)F)CC3)cc(C(=O)N3[C@@H]4c5ccccc5C[C@H]3C(=O)N[C@@H]4C(C)C)nn12
Activity (T47D): Dose-Dependent Effect
